In patent US7629340B2, “N-(6-membered aromatic ring)-amido anti-viral compounds” (SmithKline Beecham Corporation, priority 2005, dated 2009):

Test: Replicon Assay (luciferase, ET cell line)
Assay type: cell-based, HCV
Conditions: Hepatitis C virus; % inhibition of replication relative to no compound control, test concentration of 10 μM; ET cells, luciferase read 48-72 hours; read-out: % inhib at 10 uM
Experimental: A cell line, ET (Huh-lucubineo-ET) was used for screening of compounds of the present invention for HCV RNA dependent RNA polymerase. The ET cell line was stably transfected with RNA transcripts harboring a I389luc-ubi-neo/NS3-3′/ET; replicon with firefly luciferase-ubiquitin-neomycin phosphotransferase fusion protein and EMCV-IRES driven NS3-5B polyprotein containing the cell culture adaptive mutations (E1202G; T1280I; K1846T) (Krieger at al, 2001 and unpublished). The ET cells were grown in DMEM, supplemented with 10% fetal calf serum, 2 mM Glutamine, Penicillin (100 IU/mL)/Stretomycin (100 μg/mL), 1× nonessential amino acids, and 250 μg/mL G418 (“Geneticin”). They were all available through Life Technologies (Bethesda, Md.). The cells were plated at 0.5−1.0×10^4 cells/well in the 96 well plates and incubated for 24 hrs before adding nucleoside analogs. […] Luciferase activity were measured 48-72 hours later by adding a lysis buffer and the substrate (Catalog number Glo-lysis buffer E2661 and Bright-Glo luciferase system E2620 Promega, Madison, Wis.). Cells should not be too confluent during the assay. Percent inhibition of replication was plotted relative to no compound control. Under the same condition, cytotoxicity of the compounds was determined using cell proliferation reagent, WST-1 (Roche, Germany). The compounds showing antiviral activities, but no significant cytotoxicities were chosen to determine IC50 and TC50. For these determinations, 10 concentration of each compound were used. Concentrations for test compounds typically span a range of 500 fold. IC50 and TC50 values were calculated by fitting % inhibition at each concentration (I) to the following equation: % inhibition=100%/[1+10^(log IC50−log(I))*b] where b is Hill's coefficient.

Question: For CC1=NN(c2ccccc2)C(=O)/C1=C\c1ccc(NC(=O)[C@@H]2CCCN2C(=O)OCc2ccccc2)cc1 (stereo in doubt) [Compound 6005, 2-[4-(3-Methyl-5-oxo-1-phenyl-1,5-dihydro-pyrazol-4-ylidenemethyl)-phenylcarbamoyl]-pyrrolidine-1-carboxylic acid benzyl ester], which inhibition at 10 µM is on record?
Answer: The inhibition at 10 µM was 3.63%.

Question: Which inhibition at 10 µM does the source give for Cc1c(Br)cc2[nH]c(Cc3ccc(NC(=O)[C@@H]4CCCN4C(=O)OCc4ccccc4)cc3)nc2c1C (stereo in doubt) [Compound 6006, 2-[4-(6-Bromo-4,5-dimethyl-1H-benzoimidazol-2-ylmethyl)-phenylcarbamoyl]-pyrrolidine-1-carboxylic acid benzyl ester] here?
Answer: Its inhibition at 10 µM is 70%.

Question: With Cc1ccc(S(=O)(=O)c2ccc(Oc3cccc(NC(=O)[C@@H]4CCCN4C(=O)OCc4ccccc4)c3)cc2)cc1 (stereo in doubt) [Compound 6027, 2-{3-[4-(Toluene-4-sulfonyl)-phenoxy]-phenylcarbamoyl}-pyrrolidine-1-carboxylic acid benzyl ester] as the compound, how does the inhibition at 10 µM read?
Answer: The inhibition at 10 µM was 98.1%.

Question: With COc1cccc(OC)c1-c1cccc(NC(=O)[C@@H]2CCCN2C(=O)OCc2ccccc2)c1 (stereo in doubt) [Compound 6033, 2-(2′,6′-Dimethoxybiphenyl-3-yl-carbamoyl)-pyrrolidine-1-carboxylic acid benzyl ester] as the compound, how does the inhibition at 10 µM read?
Answer: The inhibition at 10 µM was 8.26%.

Question: Which inhibition at 10 µM does the source give for O=C(Nc1ccc(Cc2nc3ccccc3[nH]2)cc1)[C@@H]1CCCN1C(=O)OCc1ccccc1 (stereo in doubt) [Compound 6038, 2-[4-(1H-Benzoimidazol-2-ylmethyl)-phenylcarbamoyl]-pyrrolidine-1-carboxylic acid benzyl ester] here?
Answer: The inhibition at 10 µM was 9.34%.

Question: Which inhibition at 10 µM does the source give for Cc1cccc(Oc2cc(NC(=O)[C@@H]3CCCN3C(=O)OCc3ccccc3)cc([N+](=O)[O-])c2)c1 (stereo in doubt) [Compound 6039, 2-(3-Nitro-5-m-tolyloxy-phenylcarbamoyl)-pyrrolidine-1-carboxylic acid benzyl ester] here?
Answer: Its inhibition at 10 µM is 33.8%.

Question: Which inhibition at 10 µM does the source give for COc1ccc(-c2ccc(NC(=O)[C@@H]3CCCN3C(=O)OCc3ccccc3)cc2)c(OC)c1 [Compound 6001, 2-(2′,4′-Dimethoxy-biphenyl-4-ylcarbamoyl)-pyrrolidine-1-carboxylic acid benzyl ester] here?
Answer: The inhibition at 10 µM was 87.8%.

Question: Which inhibition at 10 µM does the source give for O=C(Nc1ccc(NS(=O)(=O)c2ccccc2)cc1)[C@@H]1CCCN1C(=O)OCc1ccccc1 [Compound 6002, 2-(4-Benzenesulfonylamino-phenylcarbamoyl)-pyrrolidine-1-carboxylic acid benzyl ester] here?
Answer: The inhibition at 10 µM was 2.69%.

Question: With CC1CCN(S(=O)(=O)c2ccc(NC(=O)[C@@H]3CCCN3C(=O)OCc3ccccc3)cc2)CC1 [Compound 6003, 2-[4-(4-Methyl-piperidine-1-sulfonyl)-phenylcarbamoyl]-pyrrolidine-1-carboxylic acid benzyl ester] as the compound, how does the inhibition at 10 µM read?
Answer: Its inhibition at 10 µM is 1.21%.

Question: Which inhibition at 10 µM does the source give for O=C(Nc1c(Cl)cccc1Cl)c1ccc(NC(=O)[C@@H]2CCCN2C(=O)OCc2ccccc2)cc1 [Compound 6004, 2-[4-(2,6-Dichloro-phenylcarbamoyl)-phenylcarbamoyl]-pyrrolidine-1-carboxylic acid benzyl ester] here?
Answer: The inhibition at 10 µM was 2.08%.

Question: With COc1ccc(OC)c(-c2ccc(NC(=O)[C@@H]3CCCN3C(=O)OCc3ccccc3)cc2)c1 [Compound 6007, 2-(2′,5′-Dimethoxy-biphenyl-4-ylcarbamoyl)-pyrrolidine-1-carboxylic acid benzyl ester] as the compound, how does the inhibition at 10 µM read?
Answer: The inhibition at 10 µM was 93.4%.

Question: With COc1cccc(-c2cccc(NC(=O)[C@@H]3CCCN3C(=O)OCc3ccccc3)c2)c1 [Compound 6008, 2-(3′-Methoxy-biphenyl-3-ylcarbamoyl)-pyrrolidine-1-carboxylic acid benzyl ester] as the compound, how does the inhibition at 10 µM read?
Answer: The inhibition at 10 µM was 79.8%.

Question: Which inhibition at 10 µM does the source give for O=C(Nc1ccc(-c2ccc3[nH]ccc3c2)cc1)[C@@H]1CCCN1C(=O)OCc1ccccc1 [Compound 6009, 2-[4-(1H-Indol-5-yl)-phenylcarbamoyl]-pyrrolidine-1-carboxylic acid benzyl ester] here?
Answer: The inhibition at 10 µM was 83.3%.

Question: Which inhibition at 10 µM does the source give for O=C(Nc1cccc(-c2ccc3[nH]ccc3c2)c1)[C@@H]1CCCN1C(=O)OCc1ccccc1 [Compound 6010, 2-[3-(1H-Indol-5-yl)-phenylcarbamoyl]-pyrrolidine-1-carboxylic acid benzyl ester] here?
Answer: The inhibition at 10 µM was 98.6%.

Question: With O=C(Nc1ccc(-c2cccc(-c3ccccc3)c2)cc1)[C@@H]1CCCN1C(=O)OCc1ccccc1 [Compound 6011, 2-([1,1′;3′,1″]Terphenyl-4-ylcarbamoyl)-pyrrolidine-1-carboxylic acid benzyl ester] as the compound, how does the inhibition at 10 µM read?
Answer: The inhibition at 10 µM was 99.7%.

Question: Which inhibition at 10 µM does the source give for O=C(Nc1cccc(Oc2c(F)c(F)c(F)c(F)c2F)c1)[C@@H]1CCCN1C(=O)OCc1ccccc1 [Compound 6012, 2-(3-Pentafluorophenyloxy-phenylcarbamoyl)-pyrrolidine-1-carboxylic acid benzyl ester] here?
Answer: Its inhibition at 10 µM is 44.5%.

Question: With O=C(Nc1cccc(S(=O)(=O)c2ccccc2)c1)[C@@H]1CCCN1C(=O)OCc1ccccc1 [Compound 6013, 2-(3-Benzenesulfonyl-phenylcarbamoyl)-pyrrolidine-1-carboxylic acid benzyl ester] as the compound, how does the inhibition at 10 µM read?
Answer: Its inhibition at 10 µM is 32.5%.

Question: With Cc1cc2nc(Cc3ccc(NC(=O)[C@@H]4CCCN4C(=O)OCc4ccccc4)cc3)[nH]c2cc1C [Compound 6014, 2-[4-(5,6-Dimethyl-1H-benzoimidazol-2-ylmethyl)-phenylcarbamoyl]-pyrrolidine-1-carboxylic acid benzyl ester] as the compound, how does the inhibition at 10 µM read?
Answer: The inhibition at 10 µM was 99.6%.

Question: With COc1ccc(-c2ccc(NC(=O)[C@@H]3CCCN3C(=O)OCc3ccccc3)cc2)cc1 [Compound 6019, 2-(4′-Methoxy-biphenyl-4-ylcarbamoyl)-pyrrolidine-1-carboxylic acid benzyl ester] as the compound, how does the inhibition at 10 µM read?
Answer: Its inhibition at 10 µM is 10.5%.

Question: For O=C(Nc1ccc(Cc2nc3cc4ccccc4cc3[nH]2)cc1)[C@@H]1CCCN1C(=O)OCc1ccccc1 [Compound 6020, 2-[4-(1H-Naphtho[2,3-d]imidazol-2-ylmethyl)-phenylcarbamoyl]-pyrrolidine-1-carboxylic acid benzyl ester], which inhibition at 10 µM is on record?
Answer: Its inhibition at 10 µM is 99.9%.

Question: Which inhibition at 10 µM does the source give for O=C(Nc1ccc(-c2cccc(COc3ccccc3)c2)cc1)[C@@H]1CCCN1C(=O)OCc1ccccc1 [Compound 6021, 2-(3′-Phenoxymethyl-biphenyl-4-ylcarbamoyl)-pyrrolidine-1-carboxylic acid benzyl ester] here?
Answer: The inhibition at 10 µM was 56.1%.

Question: Which inhibition at 10 µM does the source give for O=C(Nc1cccc(-c2cccs2)c1)[C@@H]1CCCN1C(=O)OCc1ccccc1 [Compound 6022, 2-(3-Thiophen-2-yl-phenylcarbamoyl)-pyrrolidine-1-carboxylic acid benzyl ester] here?
Answer: The inhibition at 10 µM was 87.3%.

Question: For O=C(Nc1ccc(-c2cccs2)cc1)[C@@H]1CCCN1C(=O)OCc1ccccc1 [Compound 6023, 2-(4-Thiophen-2-yl-phenylcarbamoyl)-pyrrolidine-1-carboxylic acid benzyl ester], which inhibition at 10 µM is on record?
Answer: The inhibition at 10 µM was 75.4%.

Question: With O=C(Nc1cc(Oc2ccccc2)cc(Oc2cccnc2)c1)[C@@H]1CCCN1C(=O)OCc1ccccc1 [Compound 6024, 2-[3-Phenoxy-5-(pyridin-3-yloxy)-phenylcarbamoyl]-pyrrolidine-1-carboxylic acid benzyl ester] as the compound, how does the inhibition at 10 µM read?
Answer: The inhibition at 10 µM was 98.1%.

Question: For O=C(Nc1ccc(-c2nnc(-c3ccco3)o2)cc1)[C@@H]1CCCN1C(=O)OCc1ccccc1 [Compound 6025, 2-[4-(5-Furan-2-yl-[1,3,4]oxadiazol-2-yl)-phenylcarbamoyl]-pyrrolidine-1-carboxylic acid benzyl ester], which inhibition at 10 µM is on record?
Answer: Its inhibition at 10 µM is 5.45%.
